Source: patent publication US20050049294A1, “Methods of using [3.2.0] heterocyclic compounds and analogs thereof” (priority 2003, published 2005)
Several values for one entry are separate records, joined by “and”; a condition that tells them apart may be missing. Equal entries are not always repeated.

How the values were obtained:
[1] = molecular target: chymotrypsin-like activity of human erythrocyte 20S proteasomes (Homo sapiens, UniProt P28074); assay: biochemical; settings: EC50, chymotrypsin-like activity of human erythrocyte 20S proteasomes, separate lots of proteasomes
Method: The substrate, suc-LLVY-AMC, was prepared as a 20 mM solution in DMSO and stored at −20° C. Human erythrocyte 20S proteasomes were obtained from BIOMOL (Cat. # SE-221). The proteasome can cleave suc-LLVY-AMC into suc-LLVY and free AMC and the activity can then be determined by measuring the fluorescence of the released AMC (λex=390 nm and λem=460 nm ). The proteasomes were activated by SDS and stored on ice as with the experiments using rabbit muscle proteasomes. […] The series was then diluted 20-fold with assay buffer and pre-incubated with proteasomes at 37° C. The reaction was initiated with substrate, and the release of AMC was followed in a Fluoroskan microplate fluorimeter. Data were collected and plotted as the mean of triplicate points.

[2] = tested on: IκBα in HEK293 cells and NF-κB/Luc 293 reporter clone; assay: Western blot of phosphorylated-IκBα and total IκBα; type: cell-based, human; settings: 50 and 500 nM, 1 hour pre-treatment, TNF-α 10 ng/mL 30 minutes
Method: Endogenous protein levels were assessed in both HEK293 cells and the NF-κB/Luc 293 reporter clone.
Antibodies against total and phosphorylated forms of IκBα were used to determine the endogenous level of each protein and anti-Tubulin antibody was used to confirm equal loading of protein.

[3] = tested on: p21 and p27 in HEK293 cells and HEK293 NF-κB/Luciferase reporter clone; assay: Western blot of cell cycle regulatory proteins p21 and p27; type: cell-based, human; settings: various concentrations, preliminary results
Text: The ubiquitin-proteasome pathway is an essential proteolytic system involved in cell cycle control by regulating the degradation of cyclins and cyclin-dependent kinase (Cdk) inhibitors such as p21 and p27. Pagano, et al., Science 269:682 (1995), Kisselev, et al., Chem Biol 8:739 (2001), King, et al., Science 274:1652 (1996). Furthermore, p21 and p27 protein levels are increased in the presence of proteasome inhibitors. Fukuchi, et al., Biochim Biophys Acta 1451:206 (1999), Takeuchi, et al., Jpn J Cancer Res 93:774 (2002).
The Western blots presented in FIG. 33 were reprobed using antibodies against p21 and p27 to determine the endogenous level of each protein and anti-Tubulin antibody was used to confirm equal loading of protein.

[4] = tested on: 60 human tumor cell lines; assay: NCI screen of 60 human tumor cell lines; type: cell-based; settings: 48 h, read-out: mean GI50
[5] = tested on: CCD-27sk cells; assay: Cytotoxic activity against normal human fibroblasts; type: cell-based; settings: 48h, panel of b226
[6] = Solubility assessment; settings: PBS, pH 7.4, aqueous buffer
Text: (§1) These studies consisted of solubility assessment, LogD^7.4 determination and a preliminary screen to detect cytochrome P450 enzyme inhibition.

[7] = molecular target: CYP2C9 (Homo sapiens, UniProt P11712); assay: Preliminary P450 inhibition screen, CYP2C9
Text: as §1

[8] = molecular target: CYP2D6 (Homo sapiens, UniProt P10635); assay: Preliminary P450 inhibition screen, CYP2D6
Text: as §1

[9] = molecular target: CYP2C19 (Homo sapiens, UniProt P33261); assay: Preliminary P450 inhibition screen, CYP2C19
Text: as §1

[10] = molecular target: T1, chymotrypsin-like proteasome activity in packed whole blood lysate (Mus musculus, UniProt O55234); assay: Whole blood proteasome activity (packed whole blood lysate, PWBL) of treated mice; type: in vivo
T1 construct: The supernatant (Packed Whole Blood Lysate, PWBL) was transferred to a fresh tube; from tissue; host or cells: packed whole blood cells of Swiss-Webster mice, hypotonic lysate
Method: In brief, frozen whole blood samples were thawed on ice for one hour, and resuspended in 700 μL of ice cold 5 mM EDTA, pH 8.0 in order to lyse the cells by hypotonic shock. This represents approximately 2-3 times the volume of the packed whole blood cells. Lysis was allowed to proceed for one hour, and the cellular debris was removed by centrifuigation at 14,000×g for 10 minutes. The supernatant (Packed Whole Blood Lysate, PWBL) was transferred to a fresh tube, and the pellet discarded. Protein concentration of the PWBL was determined by BCA assay (Pierce) using BSA as a standard.
Proteasome activity was determined by measuring the hydrolysis of a fluorogenic substrate specific for the chymotrypsin-like activity of proteasomes (suc-LLVY-AMC, Bachem Cat. 1-1395). […] Hydrolysis of the substrate results in the release of free AMC, which was measured fluorometrically by using λex=390 nm and λem=460 nm. The rate of hydrolysis in this system is linear for at least one hour. The hydrolysis rate of each sample is then normalized to relative fluorescent units per milligram of protein (RFU/mg).
The vehicle control consisted of 2% DMSO in 10% solutol. […] Packed whole blood cells were collected by centrifugation, washed with PBS, and re-centrifuged. All samples were stored at −80° C. prior to the evaluation of the proteasome activity. […]

[11] = tested on: LPS-induced plasma TNF; assay: Inhibition of in vivo LPS-induced TNF; settings: 0.125 or […] i.v., 30 minutes post-LPS (2 mg/kg i.p.), mice
Method: Male Swiss Webster mice (12/group weighing 20-25 g) were injected with LPS (2 mg/kg) by the i.p. route. […] Ninety minutes after LPS injection, the mice were anesthetized with Isoflurane and bled by cardiac puncture to obtain plasma. Remaining blood pellet was then resuspended in 500 μL of PBS to wash away residual serum proteins and centrifuged again. Supernatant was removed and blood pellet frozen for analysis of proteasome inhibition in packed whole blood lysate.
Animals were dosed i.v. with 4 ml/kg. A vehicle control solution was also prepared by making the same 1:160 dilution with 100% DMSO into 10% solutol solution giving a final concentration of 9.375% solutol in water and 0.625% DMSO. Measurements of plasma TNF were performed using the Biosource mTNF Cytoset kit (Biosource Intl., Camarillo, Calif.; catalog #CMC3014) according to manufacturer's instructions. Samples were diluted 1:60 for the assay.

[12] = tested on: PARP and Pro-Caspase 3 cleavage in RPMI 8226 cells; assay: Cleavage of PARP and Pro-Caspase 3 (western blot), RPMI 8226; type: cell-based, human; settings: 100 nM, 0, 8 or 24 hours
Method: Total protein lysates were made and 20 μg of the lysates were then resolved under reducing/denaturing conditions and blotted onto nitrocellulose. The blots were then probed with anti-PARP or anti-caspase 3 antibodies followed by stripping and reprobing with an anti-actin antibody.
25 μg of the lysates were then resolved under reducing/denaturing conditions and blotted onto nitrocellulose. The blots were then probed with anti-PARP or anti-caspase 3 antibodies followed by stripping and reprobing with an anti-actin antibody.

T1 sequence (O55234 60-264): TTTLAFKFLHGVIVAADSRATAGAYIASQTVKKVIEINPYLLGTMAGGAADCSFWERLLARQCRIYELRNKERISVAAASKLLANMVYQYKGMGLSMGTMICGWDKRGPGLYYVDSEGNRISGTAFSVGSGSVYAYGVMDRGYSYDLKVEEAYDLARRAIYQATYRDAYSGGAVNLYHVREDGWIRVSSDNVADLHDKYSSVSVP
Sequence of CYP2C9 (P11712 whole entry): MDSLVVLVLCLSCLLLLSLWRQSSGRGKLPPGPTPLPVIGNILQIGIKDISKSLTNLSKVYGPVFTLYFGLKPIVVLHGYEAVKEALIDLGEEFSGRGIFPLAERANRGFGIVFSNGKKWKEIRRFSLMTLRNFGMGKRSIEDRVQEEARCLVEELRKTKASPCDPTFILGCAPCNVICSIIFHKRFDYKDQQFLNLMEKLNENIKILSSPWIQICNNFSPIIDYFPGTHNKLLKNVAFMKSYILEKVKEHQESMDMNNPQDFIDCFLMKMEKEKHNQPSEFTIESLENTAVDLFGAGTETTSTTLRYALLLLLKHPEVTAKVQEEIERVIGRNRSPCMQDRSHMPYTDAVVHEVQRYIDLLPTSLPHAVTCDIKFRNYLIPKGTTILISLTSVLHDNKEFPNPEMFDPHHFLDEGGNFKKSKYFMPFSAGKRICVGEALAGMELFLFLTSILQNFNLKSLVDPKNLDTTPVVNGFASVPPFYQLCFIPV
Sequence of CYP2D6 (P10635 whole entry): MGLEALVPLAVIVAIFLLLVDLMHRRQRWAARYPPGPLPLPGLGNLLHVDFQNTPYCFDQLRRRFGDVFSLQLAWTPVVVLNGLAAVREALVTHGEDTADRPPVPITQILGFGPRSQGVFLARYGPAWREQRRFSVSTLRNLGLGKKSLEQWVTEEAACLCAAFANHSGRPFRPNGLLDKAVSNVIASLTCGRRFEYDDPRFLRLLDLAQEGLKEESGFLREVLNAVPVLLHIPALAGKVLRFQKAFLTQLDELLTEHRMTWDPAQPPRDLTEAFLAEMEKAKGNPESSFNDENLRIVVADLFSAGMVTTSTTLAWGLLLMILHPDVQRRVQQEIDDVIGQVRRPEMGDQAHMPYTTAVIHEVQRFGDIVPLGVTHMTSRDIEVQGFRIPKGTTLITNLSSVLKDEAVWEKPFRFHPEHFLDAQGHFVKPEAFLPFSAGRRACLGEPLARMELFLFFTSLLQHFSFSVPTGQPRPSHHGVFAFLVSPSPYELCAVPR
Sequence of CYP2C19 (P33261 whole entry): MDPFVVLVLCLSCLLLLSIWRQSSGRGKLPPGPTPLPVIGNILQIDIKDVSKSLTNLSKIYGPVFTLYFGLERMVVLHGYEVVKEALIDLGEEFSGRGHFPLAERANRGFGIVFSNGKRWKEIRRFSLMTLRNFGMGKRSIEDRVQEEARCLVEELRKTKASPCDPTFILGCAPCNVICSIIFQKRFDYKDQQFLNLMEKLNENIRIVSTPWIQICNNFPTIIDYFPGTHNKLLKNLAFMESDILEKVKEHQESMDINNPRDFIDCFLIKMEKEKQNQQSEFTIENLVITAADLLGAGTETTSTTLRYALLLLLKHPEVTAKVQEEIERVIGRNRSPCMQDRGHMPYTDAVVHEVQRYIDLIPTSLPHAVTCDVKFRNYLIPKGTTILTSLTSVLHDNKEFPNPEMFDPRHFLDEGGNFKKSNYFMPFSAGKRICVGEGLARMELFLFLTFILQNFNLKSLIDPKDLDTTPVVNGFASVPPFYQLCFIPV

C[C@@]12OC(=O)[C@]1([C@@H](O)[C@@H]1C=CCCC1)NC(=O)[C@@H]2CCCl [Formula II-16, Salinosporamide A]
EC50 [1]: ~250 pM and 45 to 247 pM and 45 to 250 pM
degradation of total IκBα and phospho-IκBα level [2]: reduced the degradation of total IκBα but also retained the phospho-IκBα level
p21 and p27 protein levels [3]: elevated
GI50 [4]: < 10000 pM
EC50 [5]: 196000 pM
solubility [6]: 9.6 µM and 3 µg/mL
inhibition at 10 µM [7]: 6%
inhibition at 10 µM [8]: 19%
inhibition at 10 µM [9]: 22%
proteasomal activity in PWBL ([10]; male Swiss-Webster mice, i.v. or oral, 90 minutes after administration (FIG. 40)): profound decrease in proteasomal activity in PWBL
inhibition at […] ([10]; mouse, iv, 0.25 mg/kg i.v., mice, read-out: ex vivo proteasome inhibition in packed whole blood): 94 ± 3%
reduction of LPS-induced plasma TNF levels [11]: approximately 65%
induction of PARP cleavage [12]: noticeable at 8 hours and complete by 24 hours
